Assay: Cytotoxicity against human MDA-MB-231 cells assessed as inhibition of cell viability at 5 uM after 48 hrs by MTT assay relative to control
Assay type: functional
Settings: MDA-MB-231, 48 h

C=C1c2c(C)nn(-c3ccc(OC)cc3)c2N(C)C23CC1C1(C)c4c(C)nn(-c5ccc(OC)cc5)c4N(C)C(C)(CC12)C3 (stereo unspecified)
inhibition at 5 µM: 26%
